## CN[C@@H]1CCc2c(c3cc(S(=O)(=O)c4ccccc4)ccc3n2C)C1.Cl
  melting point: > 275 °C

From patent US6727274B2, “Arylsulphonyl substituted-tetrahydro- and hexahydro-carbazoles” (Pharmacia & Upjohn Company, priority 2001, dated 2004)
